In one series the target is Cannabinoid receptor 1 (Homo sapiens, UniProt P21554). Briefly: Binding affinity to human CB1 receptor expressed in CHO cells by radioligand displacement based scintillation counting analysis. In kind it is cell-based.
The nature of series [1]: Lipophilicity, log P of the compound by HPLC analysis. In kind it is physicochemical.
Series [2] is described as follows: Terminal half life in Sprague-Dawley rat at 3 mg/kg, iv. The format is ADME, organism-based. On the set-up: dose 3 mg/kg, route intravenous. The following applies: in vivo, read-out: beta t1/2 (converted).
Series [3] has as its system Rattus norvegicus. Briefly: Reduction in food intake in nonfasted po dosed Sprague-Dawley rat measured for 8 hrs. In kind it is functional. The following applies: read-out: MED.
The subject of series [4] is Rattus norvegicus. Briefly: Reduction in food intake in nonfasted Sprague-Dawley rat at 10 mg/kg, po measured for 8 hrs. The format is functional. On the set-up: scale not given: the % may be the effect or the level left.
Another series has as its target Cytochrome P450 2C19 (Homo sapiens, UniProt P33261). Description: Inhibition of human recombinant CYP2C19. In kind it is ADME.
A further series has as its target Cytochrome P450 2C9 (Homo sapiens, UniProt P11712). Description: Inhibition of human recombinant CYP2C9. The format is ADME.
In series [5] the target is T1, Cytochrome P450 3A4 (Homo sapiens, UniProt P08684). Description: Inhibition of CYP3A4 in human hepatocytes. In kind it is ADME, cell-based, Hepatocyte.
T1 sequence (P08684 whole entry): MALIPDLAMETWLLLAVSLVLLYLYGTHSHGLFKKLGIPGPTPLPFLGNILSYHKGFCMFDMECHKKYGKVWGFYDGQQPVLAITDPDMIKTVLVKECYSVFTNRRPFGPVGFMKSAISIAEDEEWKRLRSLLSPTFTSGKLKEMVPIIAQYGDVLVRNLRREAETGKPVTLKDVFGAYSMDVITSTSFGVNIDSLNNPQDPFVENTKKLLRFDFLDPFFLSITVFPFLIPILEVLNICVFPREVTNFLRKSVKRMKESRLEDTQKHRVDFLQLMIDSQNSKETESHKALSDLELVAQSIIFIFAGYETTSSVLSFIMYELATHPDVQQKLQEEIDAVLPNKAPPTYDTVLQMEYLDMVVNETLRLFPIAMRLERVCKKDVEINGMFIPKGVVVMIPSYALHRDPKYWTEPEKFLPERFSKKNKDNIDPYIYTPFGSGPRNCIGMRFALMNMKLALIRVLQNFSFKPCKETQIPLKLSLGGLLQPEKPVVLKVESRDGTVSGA
Series [6] relates to Rattus norvegicus. Description: Antiobesity activity in rat assessed as reduction in food intake at 10 mg/kg. The format is functional. The arrangement: scale not given: the % may be the effect or the level left.
Series [7] concerns Rattus norvegicus. Description: Antiobesity activity in rat assessed as reduction in body weight at 10 mg/kg, qd after 4 days. In kind it is functional. The arrangement: scale not given: the % may be the effect or the level left.
Series [8] can be described thus: Cmax in rat at 10 mg/kg, qd. The format is ADME, organism-based. On the set-up: dose 10 mg/kg. The following applies: in vivo.
The nature of series [9]: AUC (0 to 24 hrs) in rat at 10 mg/kg, qd. In kind it is ADME, organism-based. On the set-up: time < 24 hr, dose 10 mg/kg. The following applies: plasma.
The nature of series [10]: Oral bioavailability in Sprague-Dawley rat. In kind it is ADME, organism-based. To be noted: in vivo.
Series [11] can be described thus: Oral bioavailability in dog. The format is ADME, organism-based, Canis lupus familiaris. The following applies: in vivo.
The nature of series [12]: Oral bioavailability in cynomolgus monkey. The format is ADME, organism-based, Macaca fascicularis. To be noted: in vivo.
A short description of series [13]: Elimination half life in iv dosed dog. In kind it is ADME, organism-based, Canis lupus familiaris. The following applies: in vivo, read-out: beta t1/2 (converted).
Series [14] is described as follows: Elimination half life in iv dosed cynomolgus monkey. The format is ADME, organism-based, Macaca fascicularis. The following applies: in vivo, read-out: beta t1/2 (converted).
Series [15] has as its target T1, Cytochrome P450 3A4. Description: Inhibition of CYP3A4 in human liver microsomes. In kind it is ADME. Background: Liver microsomes are a subcellular fraction often used to study metabolism.

Experimental findings from ChEMBL document CHEMBL3259698, “Reductions in log P improved protein binding and clearance predictions enabling the prospective design of cannabinoid receptor (CB1) antagonists with desired pharmacokinetic properties” (J Med Chem, 2013) are described below.

Sequence of Cytochrome P450 2C9 (P11712 whole entry): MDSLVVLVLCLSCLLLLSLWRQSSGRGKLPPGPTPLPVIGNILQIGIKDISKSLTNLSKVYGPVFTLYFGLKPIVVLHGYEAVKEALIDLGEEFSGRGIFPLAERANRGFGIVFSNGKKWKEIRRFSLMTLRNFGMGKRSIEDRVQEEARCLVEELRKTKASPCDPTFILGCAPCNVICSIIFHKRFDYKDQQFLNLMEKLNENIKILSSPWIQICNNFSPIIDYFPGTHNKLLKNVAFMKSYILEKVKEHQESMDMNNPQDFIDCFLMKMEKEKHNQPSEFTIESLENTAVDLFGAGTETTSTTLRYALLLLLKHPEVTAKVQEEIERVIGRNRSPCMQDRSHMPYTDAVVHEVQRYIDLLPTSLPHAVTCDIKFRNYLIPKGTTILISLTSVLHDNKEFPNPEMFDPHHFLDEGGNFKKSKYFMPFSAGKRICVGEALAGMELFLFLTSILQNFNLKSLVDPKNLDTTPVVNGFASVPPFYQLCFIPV
Sequence of Cannabinoid receptor 1 (P21554 whole entry): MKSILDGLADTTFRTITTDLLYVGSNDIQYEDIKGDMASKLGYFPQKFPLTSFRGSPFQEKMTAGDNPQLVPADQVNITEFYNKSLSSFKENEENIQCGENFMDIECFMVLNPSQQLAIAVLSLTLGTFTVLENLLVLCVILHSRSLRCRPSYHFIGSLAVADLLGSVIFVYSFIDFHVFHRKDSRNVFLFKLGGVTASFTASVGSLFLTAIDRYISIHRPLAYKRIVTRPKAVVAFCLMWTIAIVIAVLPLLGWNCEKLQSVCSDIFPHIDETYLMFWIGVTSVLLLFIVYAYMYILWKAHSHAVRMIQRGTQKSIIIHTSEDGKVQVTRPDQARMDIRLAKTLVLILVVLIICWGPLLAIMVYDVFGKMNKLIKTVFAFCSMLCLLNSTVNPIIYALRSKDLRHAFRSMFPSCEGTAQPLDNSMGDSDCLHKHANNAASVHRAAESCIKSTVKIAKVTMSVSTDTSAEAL
Sequence of Cytochrome P450 2C19 (P33261 whole entry): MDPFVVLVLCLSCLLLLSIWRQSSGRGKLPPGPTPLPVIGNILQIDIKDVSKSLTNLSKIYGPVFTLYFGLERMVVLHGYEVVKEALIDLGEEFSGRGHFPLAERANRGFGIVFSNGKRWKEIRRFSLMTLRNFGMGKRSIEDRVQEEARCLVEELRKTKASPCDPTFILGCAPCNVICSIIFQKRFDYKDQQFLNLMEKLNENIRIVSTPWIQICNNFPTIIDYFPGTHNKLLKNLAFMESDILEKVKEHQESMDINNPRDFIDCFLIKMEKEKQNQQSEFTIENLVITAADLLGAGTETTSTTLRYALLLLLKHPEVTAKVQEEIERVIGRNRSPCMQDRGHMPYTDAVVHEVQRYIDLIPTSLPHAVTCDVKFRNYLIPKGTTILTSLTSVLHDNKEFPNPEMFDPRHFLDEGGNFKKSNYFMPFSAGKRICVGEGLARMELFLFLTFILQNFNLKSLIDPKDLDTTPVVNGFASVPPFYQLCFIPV

Turning to `CCn1nc2c(-c3ccc(Cl)cc3)c(-c3ccncc3)c(=O)n(Cc3ccc(C(F)(F)F)nc3C)n2c1=O`, the Ki – broadly, the equilibrium dissociation constant of an inhibitor or competing ligand from its target – on Cannabinoid receptor 1 turned out to be 0.0045 µM. The logP – broadly, a log measure of how a compound divides between an organic and an aqueous phase – in [1] is 3.9. The half-life in series [2] is 5 h; in series [13], 38 h; in series [14] it was 6 h. Besides, in the series on Rattus norvegicus [3], the minimal effective dose came out at 10 mg/kg. The Activity with Rattus norvegicus [4] is recorded as 51%; in the series on Rattus norvegicus [6], 43%; in the series with Rattus norvegicus [7], 4%. For the same compound, the IC50 (usually the concentration that gives 50% inhibition) at Cytochrome P450 2C19 was found to be 2.6 µM; on Cytochrome P450 2C9, 4.2 µM; at Cytochrome P450 3A4 [5] it was 3 µM; against Cytochrome P450 3A4 [15], 9.1 µM. Further, in series [8], the peak level (Cmax) was 4 µM. The AUC (usually concentration integrated over time) at 24 h in series [9] turned out to be 48 µM·h. Also, the bioavailability (usually the share of a dose that reaches the circulation, judged against a reference dose that is usually intravenous) worked out at 50% in series [10], 40% in series [11] and 15% in series [12].
